Experimental data from patent US20170000749A1, “Methods for Treating Cognitive Disorders Using Inhibitors of Histone Deacetylase” (Forum Pharmaceuticals, Inc., priority 2008, published 2017).
Like-named read-outs stand apart in the source and are kept apart here.

How the values were obtained:
[1] = test system: HDAC activity in primary mouse cortical cultures; experiment: Whole-Cell Histone Deacetylase (HDAC) Inhibition Assay in Primary Mouse Cortical Cultures; type: cell-based
Summary of the method: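 Primary neocortical neurons from E17 Balb/C mouse embryos were plated at 50000 cells/well and treated at DIV9 with ten-point DMSO dilutions for 16-18 h at 37° C, in triplicate. BOC-Lys(Ac)-AMC substrate was then added for 1 h. Fluor de Lys developer containing 1 uM TSA produced a fluorophore, which was read.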

[2] = biological target: one or more of HDAC-1, HDAC-2, HDAC-3, HDAC-4, HDAC-5, HDAC-6, HDAC-7, HDAC-8, HDAC-9, HDAC-10 and HDAC-11; experiment: Inhibition of Histone Deacetylase Enzymatic Activity (Boc-Lys(Ac)-AMC substrate, Fluor-de-Lys developer); type: biochemical; settings: read-out: HDAC Inhibition (IC50 μM) HDAC Enzyme
Experimental: The following protocol is used to assay the compounds of the disclosure.
The mixture is pre-incubated for 5 minutes at room temperature. The reaction is started by bringing the temperature to 37° C. and adding 16 μl substrate. Total reaction volume is 50 μl.
In the Tables 8, 9 and 10, A≦0.05 μM; 0.05 μM<B≦0.1 μM; 0.1 μM<C≦1 μM; and 1 μM<D≦10 μM.

[3] = read-out: HDAC Inhibition (IC50 μM) WC mouse cortical neurons, Table 10
[4] = whole-cell (WC), mouse cortical neurons, Table 10, read-out: HDAC Inhibition (IC50 μM) WC mouse cortical neurons
[5] = whole-cell (WC), mouse cortical neurons, Table 8, read-out: HDAC Inhibition (IC50 μM) WC mouse cortical neurons

SMILES | IC50 [1, 3] | IC50 ([2]; Table 10) | IC50 [1, 4] | IC50 [1, 5] | IC50 ([2]; Table 8)
CN1C(=O)CN=C(c2ccccc2)c2ccc(/C=C/C(=O)NO)cc21 [(E)-N-hydroxy-3-((Z)-1-methyl-2-oxo-5-phenyl-2,3-dihydro-1H-benzo[e][1,4]diazepin-8-yl)acrylamide] | 1 to 5 µM | 0.1 to 1 µM | – | – | –
O=C(/C=C/c1ccc2c(c1)NC(=O)CN=C2c1ccccc1)NO [(E)-N-hydroxy-3-((Z)-2-oxo-5-phenyl-2,3-dihydro-1H-benzo[e][1,4]diazepin-8-yl)acrylamide] | 1 to 5 µM | 0.05 to 0.1 µM | – | – | –
O=C(NO)c1ccc(/C=C/CN2C(=O)c3ccccc3Oc3ccccc32)cc1 [(E)-N-hydroxy-4-(3-(11-oxodibenzo[b,f][1,4]oxazepin-10(11H)-yl)prop-1-enyl)benzamide] | – | 0.05 to 0.1 µM | < 1 µM | – | –
O=C(NO)c1ccc(-c2ccc3c(c2)C(N2CCOCC2)=Nc2ccccc2O3)cc1 [(E)-N-hydroxy-4-(11-morpholinodibenzo[b,f][1,4]oxazepin-2-yl)benzamide] | – | – | – | > 15 µM | < 0.05 µM
O=C(Cc1ccc(CN2c3ccccc3C=Cc3ccccc32)cc1)NO [(Z)-2-(4-((5H-dibenzo[b,f]azepin-5-yl)methyl)phenyl)-N-hydroxyacetamide] | – | 0.1 to 1 µM | 5 to 15 µM | – | –
O=C(NO)c1cccc(C2=Nc3ccccc3Oc3ccccc32)c1 [(Z)-3-(dibenzo[b,f][1,4]oxazepin-11-yl)-N-hydroxybenzamide] | – | – | – | > 15 µM | 0.1 to 1 µM
O=C(NO)c1ccc(C2=Nc3ccccc3Oc3cccc(F)c32)cc1 [(Z)-4-(1-fluorodibenzo[b,f][1,4]oxazepin-11-yl)-N-hydroxybenzamide] | – | – | – | 5 to 15 µM | < 0.05 µM
O=C(NO)c1ccc(C2=Nc3ccccc3Oc3ccc(Cl)cc32)cc1 [(Z)-4-(2-chlorodibenzo[b,f][1,4]oxazepin-11-yl)-N-hydroxybenzamide] | – | – | – | 5 to 15 µM | < 0.05 µM
COc1cc(F)cc2c1Oc1ccccc1N=C2c1ccc(C(=O)NO)cc1 [(Z)-4-(2-fluoro-4-methoxydibenzo[b,f][1,4]oxazepin-11-yl)-N-hydroxybenzamide] | – | – | – | 1 to 5 µM | < 0.05 µM
O=C(NO)c1ccc(C2=Nc3ccccc3Oc3ccc(F)cc32)cc1 [(Z)-4-(2-fluorodibenzo[b,f][1,4]oxazepin-11-yl)-N-hydroxybenzamide] | – | – | – | 1 to 5 µM | < 0.05 µM
O=C(NO)c1ccc(C2=Nc3ccccc3Oc3cc(F)ccc32)cc1 [(Z)-4-(3-fluorodibenzo[b,f][1,4]oxazepin-11-yl)-N-hydroxybenzamide] | – | – | – | > 15 µM | 0.1 to 1 µM
O=C(NO)c1ccc(C2=Nc3ccccc3Oc3c(F)cccc32)cc1 [(Z)-4-(4-fluorodibenzo[b,f][1,4]oxazepin-11-yl)-N-hydroxybenzamide] | – | – | – | 5 to 15 µM | 0.1 to 1 µM
O=C(NO)c1ccc(C2=Nc3ccccc3N(C3CC3)c3ccc(F)cc32)cc1 [(Z)-4-(5-cyclopropyl-2-fluoro-5H-dibenzo[b,e][1,4]diazepin-11-yl)-N-hydroxybenzamide] | – | – | – | 1 to 5 µM | 0.05 to 0.1 µM
O=C(NO)c1ccc(C2=Nc3ccccc3N(C3CC3)c3ccccc32)cc1 [(Z)-4-(5-cyclopropyl-5H-dibenzo[b,e][1,4]diazepin-11-yl)-N-hydroxybenzamide] | – | – | – | 1 to 5 µM | 0.1 to 1 µM
CCN1c2ccccc2N=C(c2ccc(C(=O)NO)cc2)c2ccccc21 [(Z)-4-(5-ethyl-5H-dibenzo[b,e][1,4]diazepin-11-yl)-N-hydroxybenzamide] | – | – | – | 1 to 5 µM | 0.05 to 0.1 µM
O=C(NO)c1ccc(C2=Nc3ccccc3Cn3cccc32)cc1 [(Z)-4-(5H-benzo[e]pyrrolo[1,2-a][1,4]diazepin-11-yl)-N-hydroxybenzamide] | – | – | – | 1 to 5 µM | < 0.05 µM
O=C(NO)c1ccc(C2=Nc3ccccc3Nc3ccccc32)cc1 [(Z)-4-(5H-dibenzo[b,e][1,4]diazepin-11-yl)-N-hydroxybenzamide] | – | – | – | 1 to 5 µM | 0.1 to 1 µM
O=C(CCCN1c2ccccc2C=Cc2ccccc21)NO [(Z)-4-(5H-dibenzo[b,f]azepin-5-yl)-N-hydroxybutanamide] | – | 1 to 10 µM | 5 to 15 µM | – | –
O=C(NO)c1ccc(C2=Nc3cccc(F)c3Oc3ccccc32)cc1 [(Z)-4-(6-fluorodibenzo[b,f][1,4]oxazepin-11-yl)-N-hydroxybenzamide] | – | – | – | 5 to 15 µM | 0.05 to 0.1 µM
O=C(NO)c1ccc(C2=Nc3ccc(Cl)cc3Oc3ccccc32)cc1 [(Z)-4-(7-chlorodibenzo[b,f][1,4]oxazepin-11-yl)-N-hydroxybenzamide] | – | – | – | 5 to 15 µM | 0.1 to 1 µM
N#Cc1ccc2c(c1)Oc1ccccc1C(c1ccc(C(=O)NO)cc1)=N2 [(Z)-4-(7-cyanodibenzo[b,f][1,4]oxazepin-11-yl)-N-hydroxybenzamide] | – | – | – | 5 to 15 µM | < 0.05 µM

SMILES | IC50 [1, 3] | IC50 ([2]; Table 10) | IC50 [1, 4] | IC50 [1, 5] | IC50 ([2]; Table 8)
O=C(NO)c1ccc(C2=Nc3cc(Cl)ccc3Oc3ccccc32)cc1 [(Z)-4-(8-chlorodibenzo[b,f][1,4]oxazepin-11-yl)-N-hydroxybenzamide] | – | – | – | 5 to 15 µM | 0.1 to 1 µM
N#Cc1ccc2c(c1)N=C(c1ccc(C(=O)NO)cc1)c1ccccc1O2 [(Z)-4-(8-cyanodibenzo[b,f][1,4]oxazepin-11-yl)-N-hydroxybenzamide] | – | – | – | 1 to 5 µM | 0.05 to 0.1 µM
O=C(NO)c1ccc(C2=Nc3cc(Cl)ccc3Nc3ccccc32)cc1 [(Z)-4-(8-oro-5H-dibenzo[b,e][1,4]diazepin-11-yl)-N-hydroxybenzamide] | – | – | – | 1 to 5 µM | 0.05 to 0.1 µM
O=C(NO)c1ccc(C2=Nc3c(F)cccc3Oc3ccccc32)cc1 [(Z)-4-(9-fluorodibenzo[b,f][1,4]oxazepin-11-yl)-N-hydroxybenzamide] | – | – | – | 1 to 5 µM | 0.05 to 0.1 µM
O=C(NO)c1ccc(C2=Nc3ccccc3N(C3CC3)c3ncccc32)cc1 [(Z)-4-(11-cyclopropyl-11H-benzo[b]pyrido[2,3-e][1,4]diazepin-5-yl)-N-hydroxybenzamide] | – | – | – | < 1 µM | < 0.05 µM
CCN1c2ccccc2N=C(c2ccc(C(=O)NO)cc2)c2cccnc21 [(Z)-4-(11-ethyl-11H-benzo[b]pyrido[2,3-e][1,4]diazepin-5-yl)-N-hydroxybenzamide] | – | – | – | < 1 µM | < 0.05 µM
O=C(NO)c1ccc(CN2c3ccccc3C=Cc3ccccc32)cc1 [(Z)-4-((5H-dibenzo[b,f]azepin-5-yl)methyl)-N-hydroxybenzamide] | – | < 0.05 µM | 5 to 15 µM | – | –
O=C(NO)c1ccc(C2=Nc3ccccc3Oc3ncccc32)cc1 [(Z)-4-(benzo[b]pyrido[3,2-f][1,4]oxazepin-5-yl)-N-hydroxybenzamide] | – | – | – | 1 to 5 µM | 0.05 to 0.1 µM
O=C(NO)c1ccc(C2=Nc3ccccc3Oc3cnccc32)cc1 [(Z)-4-(benzo[b]pyrido[4,3-f][1,4]oxazepin-5-yl)-N-hydroxybenzamide] | – | – | – | < 1 µM | 0.1 to 1 µM
O=C(NO)c1ccc(C2=Nc3cccnc3Oc3ccccc32)cc1 [(Z)-4-(benzo[f]pyrido[2,3-b][1,4]oxazepin-6-yl)-N-hydroxybenzamide] | – | – | – | 1 to 5 µM | < 0.05 µM
O=C(NO)c1ccc(C2=Nc3ccsc3Oc3ccccc32)cc1 [(Z)-4-(benzo[f]thieno[2,3-b][1,4]oxazepin-5-yl)-N-hydroxybenzamide] | – | – | – | 1 to 5 µM | 0.1 to 1 µM
O=C(NO)c1ccc(C2=Nc3ccccc3Oc3ccccc32)cc1F [(Z)-4-(dibenzo[b,f][1,4]oxazepin-11-yl)-2-fluoro-N-hydroxybenzamide] | – | – | – | 5 to 15 µM | 0.1 to 1 µM
O=C(NO)c1ccc(C2=Nc3ccccc3Oc3ccccc32)cc1 [(Z)-4-(dibenzo[b,f][1,4]oxazepin-11-yl)-N-hydroxybenzamide] | – | – | – | < 1 µM | < 0.05 µM
O=C(NO)c1ccc(C2=Nc3ccccc3Oc3c[n+]([O-])ccc32)cc1 [(Z)-5-(4-(hydroxycarbamoyl)phenyl)benzo[b]pyrido[4,3-f][1,4]oxazepine 2-oxide] | – | – | – | 5 to 15 µM | 0.1 to 1 µM
O=C(CCCCN1c2ccccc2C=Cc2ccccc21)NO [(Z)-5-(5H-dibenzo[b,f]azepin-5-yl)-N-hydroxypentanamide] | – | 0.1 to 1 µM | 5 to 15 µM | – | –
O=C(CCCCCN1c2ccccc2C=Cc2ccccc21)NO [(Z)-6-(5H-dibenzo[b,f]azepin-5-yl)-N-hydroxyhexanamide] | – | < 0.05 µM | 1 to 5 µM | – | –
O=C(CCCCCC(=O)N1c2ccccc2C=Cc2ccccc21)NO [(Z)-7-(5H-dibenzo[b,f]azepin-5-yl)-N-hydroxy-7-oxoheptanamide] | – | < 0.05 µM | < 1 µM | – | –
O=C(CCCCCCN1c2ccccc2C=Cc2ccccc21)NO [(Z)-7-(5H-dibenzo[b,f]azepin-5-yl)-N-hydroxyheptanamide] | – | < 0.05 µM | 1 to 5 µM | – | –
O=C(CCCCCCC(=O)N1c2ccccc2C=Cc2ccccc21)NO [(Z)-8-(5H-dibenzo[b,f]azepin-5-yl)-N-hydroxy-8-oxooctanamide] | – | 0.1 to 1 µM | 5 to 15 µM | – | –
CN1C(=O)CN=C(c2ccccc2)c2ccc(CCC(=O)NO)cc21 [(Z)-N-hydroxy-3-(1-methyl-2-oxo-5-phenyl-2,3-dihydro-1H-benzo[e][1,4]diazepin-8-yl)propanamide] | 5 to 15 µM | 0.1 to 1 µM | – | – | –
CN1C(=O)CN=C(c2ccc(C(=O)NO)cc2)c2ccccc21 [(Z)-N-hydroxy-4-(1-methyl-2-oxo-2,3-dihydro-1H-benzo[e][1,4]diazepin-5-yl)benzamide] | 5 to 15 µM | 0.1 to 1 µM | – | – | –
